From ChEMBL document CHEMBL1817616, “Synthesis, characterization and biological evaluation of some 16β-azolyl-3β-amino-5α-androstane derivatives as potential anticancer agents” (Eur J Med Chem, 2011)

What was measured:
HeLa = experiment: Anticancer activity against human HeLa cells after 48 hrs by MTT assay; type: functional, cell-based
HepG2 = experiment: Anticancer activity against human HepG2 cells after 48 hrs by MTT assay; type: functional, cell-based; conditions: HepG2, 48 h
SiHa = experiment: Anticancer activity against human SiHa cells after 48 hrs by MTT assay; type: functional, cell-based
A549 = experiment: Anticancer activity against human A549 cells after 48 hrs by MTT assay; type: functional, cell-based; conditions: A549, 48 h
SW480 = experiment: Anticancer activity against human SW480 cells after 48 hrs by MTT assay; type: functional, cell-based; conditions: SW480, 48 h
HEK293 = experiment: Cytotoxicity against human HEK293 cells after 48 hrs by MTT assay; type: cell-based; conditions: HEK293, 48 h

| Structure (SMILES) | IC50 (HeLa) [µM] | IC50 (HepG2) [µM] | IC50 (SiHa) [µM] | IC50 (A549) [µM] | IC50 (SW480) [µM] | IC50 (HEK293) [µM] |
| --- | --- | --- | --- | --- | --- | --- |
| CCN(CC)[C@H]1CC[C@@]2(C)[C@@H](CC[C@@H]3[C@@H]2CC[C@@]2(C)[C@H]3C[C@H](n3ccnn3)[C@@H]2OC(C)=O)C1 | > 50 | > 50 | > 50 | > 50 | > 50 | – |
| CC(=O)O[C@H]1[C@@H](n2cncn2)C[C@H]2[C@@H]3CC[C@H]4C[C@@H](N(C)c5ccccc5)CC[C@]4(C)[C@H]3CC[C@@]21C | 19.8 | 21.9 | 37.1 | 12.3 | > 50 | – |
| CC(=O)O[C@H]1[C@@H](n2ccnn2)C[C@H]2[C@@H]3CC[C@H]4C[C@@H](N5CCCC5)CC[C@]4(C)[C@H]3CC[C@@]21C | > 50 | > 50 | > 50 | > 50 | > 50 | – |
| CC(=O)O[C@H]1[C@@H](n2cnc3ccccc32)C[C@H]2[C@@H]3CC[C@H]4C[C@@H](N5CCCCC5)CC[C@]4(C)[C@H]3CC[C@@]21C | > 50 | 29.6 | 18.7 | > 50 | > 50 | – |
| CCN(CC)[C@H]1CC[C@@]2(C)[C@@H](CC[C@@H]3[C@@H]2CC[C@@]2(C)[C@H]3C[C@H](n3cncn3)[C@@H]2OC(C)=O)C1 | > 50 | > 50 | > 50 | > 50 | > 50 | – |
| CC(=O)O[C@H]1[C@@H](n2cncn2)C[C@H]2[C@@H]3CC[C@H]4C[C@@H](N5CCCCC5)CC[C@]4(C)[C@H]3CC[C@@]21C | > 50 | > 50 | > 50 | > 50 | > 50 | – |
| CC(=O)O[C@H]1[C@@H](n2cnc3ccccc32)C[C@H]2[C@@H]3CC[C@H]4C[C@@H](N5CCOCC5)CC[C@]4(C)[C@H]3CC[C@@]21C | > 50 | > 50 | 12.3 | 16.1 | > 50 | – |
| CC(=O)O[C@H]1[C@@H](n2cncn2)C[C@H]2[C@@H]3CC[C@H]4C[C@@H](N5CCOCC5)CC[C@]4(C)[C@H]3CC[C@@]21C | 22.3 | 19.5 | > 50 | > 50 | > 50 | – |
| CC(=O)O[C@H]1[C@@H](n2nnc3ccccc32)C[C@H]2[C@@H]3CC[C@H]4C[C@@H](N5CCN(C)CC5)CC[C@]4(C)[C@H]3CC[C@@]21C | > 50 | 31.7 | 22 | 8.99 | 18.9 | – |
| CC(=O)O[C@H]1[C@@H](n2cnc3ccccc32)C[C@H]2[C@@H]3CC[C@H]4C[C@@H](N5CCN(C)CC5)CC[C@]4(C)[C@H]3CC[C@@]21C | > 50 | 11.7 | 14.9 | 22.4 | > 50 | – |
| CCN(CC)[C@H]1CC[C@@]2(C)[C@@H](CC[C@@H]3[C@@H]2CC[C@@]2(C)[C@H]3C[C@H](n3cnc4ccccc43)[C@@H]2OC(C)=O)C1 | > 50 | 22.1 | 29.8 | > 50 | > 50 | – |
| CC(=O)O[C@H]1[C@@H](n2cnc3ccccc32)C[C@H]2[C@@H]3CC[C@H]4C[C@@H](N5CCCC5)CC[C@]4(C)[C@H]3CC[C@@]21C | > 50 | > 50 | 37.1 | 39.6 | > 50 | – |
| CC(=O)O[C@H]1[C@@H](n2nnc3ccccc32)C[C@H]2[C@@H]3CC[C@H]4C[C@@H](N(C)c5ccccc5)CC[C@]4(C)[C@H]3CC[C@@]21C | 10.4 | 6.36 | 9.83 | 5.12 | 18.6 | > 80 |
| CC(=O)O[C@H]1[C@@H](n2cncn2)C[C@H]2[C@@H]3CC[C@H]4C[C@@H](N5CCN(C)CC5)CC[C@]4(C)[C@H]3CC[C@@]21C | > 50 | 23.5 | > 50 | 39.7 | > 50 | – |
| CC(=O)O[C@H]1[C@@H](n2cnc3ccccc32)C[C@H]2[C@@H]3CC[C@H]4C[C@@H](N(C)Cc5ccccc5)CC[C@]4(C)[C@H]3CC[C@@]21C | 6.04 | 5.14 | 11.9 | 4.22 | 15.8 | > 80 |
| CC(=O)O[C@H]1[C@@H](n2ccnn2)C[C@H]2[C@@H]3CC[C@H]4C[C@@H](N(C)c5ccccc5)CC[C@]4(C)[C@H]3CC[C@@]21C | 72.1 | 9.35 | 11.7 | 18.9 | > 50 | – |
| CC(=O)O[C@H]1[C@@H](n2ccnn2)C[C@H]2[C@@H]3CC[C@H]4C[C@@H](N5CCCCC5)CC[C@]4(C)[C@H]3CC[C@@]21C | > 50 | > 50 | > 50 | > 50 | > 50 | – |
| CC(=O)O[C@H]1[C@@H](n2nnc3ccccc32)C[C@H]2[C@@H]3CC[C@H]4C[C@@H](N5CCOCC5)CC[C@]4(C)[C@H]3CC[C@@]21C | 19.8 | > 50 | > 50 | 12.2 | > 50 | – |
| CC(=O)O[C@H]1[C@@H](n2ccnn2)C[C@H]2[C@@H]3CC[C@H]4C[C@@H](N5CCOCC5)CC[C@]4(C)[C@H]3CC[C@@]21C | > 50 | > 50 | 47.8 | 40.3 | 31.8 | – |
| COc1cccc2c1C(=O)c1c(O)c3c(c(O)c1C2=O)C[C@@](O)(C(=O)CO)C[C@@H]3O[C@H]1C[C@H](N)[C@H](O)[C@H](C)O1 [DOXORUBICIN] | 0.23 | – | 0.45 | – | 0.06 | – |
| CC(=O)O[C@H]1[C@@H](n2ccnn2)C[C@H]2[C@@H]3CC[C@H]4C[C@@H](N(C)Cc5ccccc5)CC[C@]4(C)[C@H]3CC[C@@]21C | > 50 | 8.43 | 15.2 | 11.4 | > 50 | – |
| CC(=O)O[C@H]1[C@@H](n2nnc3ccccc32)C[C@H]2[C@@H]3CC[C@H]4C[C@@H](N5CCCCC5)CC[C@]4(C)[C@H]3CC[C@@]21C | 29.6 | > 50 | > 50 | 22.7 | > 50 | – |
| CC(=O)O[C@H]1[C@@H](n2nnc3ccccc32)C[C@H]2[C@@H]3CC[C@H]4C[C@@H](N(C)Cc5ccccc5)CC[C@]4(C)[C@H]3CC[C@@]21C | 11.3 | 5.54 | 26.2 | 7.72 | > 50 | 48.7 |
| CC(=O)O[C@H]1[C@@H](n2cncn2)C[C@H]2[C@@H]3CC[C@H]4C[C@@H](N5CCCC5)CC[C@]4(C)[C@H]3CC[C@@]21C | > 50 | > 50 | > 50 | > 50 | > 50 | – |
| CC(=O)O[C@H]1[C@@H](n2cnc3ccccc32)C[C@H]2[C@@H]3CC[C@H]4C[C@@H](N(C)c5ccccc5)CC[C@]4(C)[C@H]3CC[C@@]21C | 4.51 | > 50 | 6.67 | 28.4 | 9.22 | > 80 |
| CC(=O)O[C@H]1[C@@H](n2cncn2)C[C@H]2[C@@H]3CC[C@H]4C[C@@H](N(C)Cc5ccccc5)CC[C@]4(C)[C@H]3CC[C@@]21C | 18.7 | 10.6 | 22.4 | > 50 | > 50 | – |
| CC(=O)O[C@H]1[C@@H](n2nnc3ccccc32)C[C@H]2[C@@H]3CC[C@H]4C[C@@H](N5CCCC5)CC[C@]4(C)[C@H]3CC[C@@]21C | > 50 | > 50 | > 50 | > 50 | > 50 | – |
| CC(=O)O[C@H]1[C@@H](n2ccnn2)C[C@H]2[C@@H]3CC[C@H]4C[C@@H](N5CCN(C)CC5)CC[C@]4(C)[C@H]3CC[C@@]21C | 38.1 | > 50 | > 50 | > 50 | > 50 | – |
| CCN(CC)[C@H]1CC[C@@]2(C)[C@@H](CC[C@@H]3[C@@H]2CC[C@@]2(C)[C@H]3C[C@H](n3nnc4ccccc43)[C@@H]2OC(C)=O)C1 | > 50 | > 50 | 37.2 | > 50 | > 50 | – |
